Values of other authors, collected in patent US20120282652A1, “PREPARATION OF PEPTIDE MIXTURES BY PROTEASE CATALYSIS DESIGNED TO PROVIDE USEFUL BIOLOGICAL AND PHYSICAL PROPERTIES” (priority 2011, published 2012).

Experiments:
[1] = test system: S. aureus, E. coli, and P. aeruginosa; settings: peptide synthesized by traditional chemical methods
[2] = Cheng et al.

LKLLKKLLKKLKKLLKKL [amphipathic model peptide synthesized by traditional chemical methods]
antimicrobial activity compared with diblock KKKKKKKKKLLLLLLLLL or alternating KLKLKLKLKLKLKLKLKL [1]: better antimicrobial activity

[γ-Glu-Cys]2-Gly
Cd(II) at which binding saturated (absorbance at 240 nm, Mehra): 0.5 equivalents | Cd(II)/peptide ratio up to which absorption intensity is enhanced (absorption at 250 nm, Kobayashi and Yoshimura): ≤ 1.4

[γ-Glu-Cys]4-Gly [[(γ-EC)4]-Gly]
order of binding efficiency of the metals [2]: Cd>Zn>Ni>Co
